Assay results reported in PubChem BioAssay (NCI).
Several values for one entry are separate records, joined by “and”; a condition that tells them apart may be missing. Identical values can stand only once.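 Protocol summary: plate cells (96-well), add compound at 5 concentrations, incubate 48 h, interpolate endpoints linearly. Here, GI50 denotes the concentration required for 50% inhibition of growth. TGI: concentration producing complete growth inhibition.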

Key:
Test in all cases: inhibition of tumour cell growth, NCI panel, 48 h
SR leukemia = system: SR leukemia
A549 NSCLC = system: A549 NSCLC
SF-539 CNS = system: SF-539 CNS
HS 578T breast = system: HS 578T breast
MALME-3M melanoma = system: MALME-3M melanoma
COLO 205 colon = system: COLO 205 colon
NCI-H522 lung = system: NCI-H522 lung
UACC-62 melanoma = system: UACC-62 melanoma
SNB-75 CNS = system: SNB-75 CNS
HCT-15 colon = system: HCT-15 colon

## CCN1CCC(CCOC)(CN2c3ccccc3Sc3ccc(Cl)cc32)C1 (stereo not drawn)
SR leukemia
  GI50: 4.01 µM
  TGI: > 100 µM
A549 NSCLC
  GI50: 1.9 µM
  TGI: 3.56 µM
SF-539 CNS
  GI50: 1.76 µM
  TGI: 3.51 µM
HS 578T breast
  GI50: 2.12 µM
  TGI: 6.55 µM
MALME-3M melanoma
  GI50: 1.91 µM
  TGI: 3.6 µM
COLO 205 colon
  GI50: 1.71 µM
  TGI: 3.29 µM
NCI-H522 lung
  GI50: 1.74 µM
  TGI: 3.59 µM
UACC-62 melanoma
  GI50: 2.05 µM
  TGI: 3.81 µM
SNB-75 CNS
  GI50: 2.25 µM
  TGI: 5.8 µM
HCT-15 colon
  GI50: 2.04 µM
  TGI: 4.26 µM

## COc1cccc(C=Nc2cc(C)ccn2)c1O.COc1cccc(C=Nc2cc(C)ccn2)c1O.[Cu]
SR leukemia
  GI50: 18.6 µM
  TGI: > 100 µM
A549 NSCLC
  GI50: 27.8 µM
  TGI: 90.1 µM
SF-539 CNS
  GI50: 17 µM
  TGI: 42.9 µM
HS 578T breast
  GI50: 19 µM
  TGI: 67.6 µM
MALME-3M melanoma
  GI50: 16.6 µM
  TGI: 31.7 µM
COLO 205 colon
  GI50: 18.9 µM
  TGI: 42.8 µM
NCI-H522 lung
  GI50: 22.3 µM
  TGI: 52.3 µM
UACC-62 melanoma
  GI50: 15.8 µM
  TGI: 31.9 µM
SNB-75 CNS
  GI50: 18.8 µM
  TGI: 44.9 µM
HCT-15 colon
  GI50: 11.9 µM
  TGI: 36 µM

## COc1ccc2cc(-c3ccoc(=O)c3-c3cc(OC)c(OC)c(OC)c3)ccc2c1
SR leukemia
  GI50: 0.0301 µM
A549 NSCLC
  GI50: 0.0775 µM
  TGI: > 100 µM
SF-539 CNS
  GI50: 0.266 µM
  TGI: > 100 µM
HS 578T breast
  GI50: 0.134 µM
  TGI: > 100 µM
MALME-3M melanoma
  GI50: > 100 µM
  TGI: > 100 µM
COLO 205 colon
  GI50: 0.0449 µM
  TGI: 0.212 µM
NCI-H522 lung
  GI50: 0.0206 µM
  TGI: 0.113 µM
UACC-62 melanoma
  GI50: 0.0536 µM
  TGI: > 100 µM
SNB-75 CNS
  GI50: 0.0977 µM
  TGI: > 100 µM
HCT-15 colon
  GI50: 0.059 µM
  TGI: > 100 µM

## CCCCNCC(=O)O[C@]1(CC)C(=O)OCc2c1cc1n(c2=O)Cc2cc3ccccc3nc2-1
SR leukemia
  TGI: 0.0355 µM
A549 NSCLC
  TGI: 26.7 µM
SF-539 CNS
  TGI: 0.849 µM
HS 578T breast
  TGI: > 100 µM
MALME-3M melanoma
  TGI: 30.5 µM
COLO 205 colon
  TGI: 17.5 µM
NCI-H522 lung
  TGI: 4.82 µM
UACC-62 melanoma
  TGI: 0.925 µM
SNB-75 CNS
  TGI: 3.44 µM
HCT-15 colon
  TGI: > 100 µM

## C=CC(=O)Nc1cccc(C)c1Nc1cc(-c2cccnc2Cc2c(C)c(OC)cc(OC)c2C)ncn1
SR leukemia
  GI50: 4.41 µM
  TGI: > 100 µM
A549 NSCLC
  GI50: 16.2 µM
  TGI: > 100 µM
SF-539 CNS
  GI50: 3.47 µM
  TGI: 38.2 µM
HS 578T breast
  GI50: 10.6 µM
  TGI: 68.3 µM
MALME-3M melanoma
  GI50: 17.8 µM
  TGI: 49 µM
COLO 205 colon
  GI50: 13.1 µM
  TGI: > 100 µM
NCI-H522 lung
  GI50: 11.6 µM
  TGI: 36.2 µM
UACC-62 melanoma
  GI50: 10.3 µM
  TGI: 25.9 µM
SNB-75 CNS
  GI50: 13.2 µM
  TGI: 91.2 µM
HCT-15 colon
  GI50: 14.4 µM
  TGI: 47.2 µM

## O=C1C=C(Br)c2c(-c3ccccc3)oc3cccc1c23
SR leukemia
  TGI: > 30.8 µM
A549 NSCLC
  TGI: > 100 µM
SF-539 CNS
  TGI: > 94.2 µM
HS 578T breast
  TGI: > 100 µM
MALME-3M melanoma
  TGI: > 100 µM
COLO 205 colon
  TGI: > 100 µM
NCI-H522 lung
  TGI: > 100 µM
UACC-62 melanoma
  TGI: > 100 µM
SNB-75 CNS
  TGI: 42.5 µM
HCT-15 colon
  TGI: > 87.1 µM

## Cc1ccc(NC(=O)/C=C/c2ccccc2)c(C(N)=O)c1
SR leukemia
  GI50: 0.881 µM
  TGI: 20.1 µM
A549 NSCLC
  GI50: 5.28 µM
  TGI: > 100 µM
SF-539 CNS
  GI50: 2.07 µM
  TGI: 6.75 µM
HS 578T breast
  GI50: 1.69 µM
  TGI: 6.63 µM
MALME-3M melanoma
  GI50: 5.99 µM
  TGI: > 100 µM
COLO 205 colon
  GI50: 1.68 µM
  TGI: 5.93 µM
NCI-H522 lung
  GI50: 1.89 µM
  TGI: 9.06 µM
UACC-62 melanoma
  GI50: 3.44 µM
  TGI: > 80.8 µM
SNB-75 CNS
  GI50: 2.62 µM
  TGI: 15.1 µM
HCT-15 colon
  GI50: 2.43 µM
  TGI: > 100 µM

## C[C@]12CCC3[C@@H](CC[C@@H]4c5nonc5CC[C@]34C)C1CCC(=O)N2 (stereo partly drawn)
SR leukemia
  GI50: > 100 µM
  TGI: > 100 µM
A549 NSCLC
  TGI: > 100 µM
SF-539 CNS
  TGI: > 100 µM
HS 578T breast
  GI50: > 100 µM
  TGI: > 100 µM
MALME-3M melanoma
  TGI: > 100 µM
COLO 205 colon
  TGI: > 100 µM
NCI-H522 lung
  TGI: > 100 µM
UACC-62 melanoma
  GI50: > 84 µM
  TGI: > 100 µM
SNB-75 CNS
  GI50: 35.2 µM
  TGI: > 100 µM
HCT-15 colon
  TGI: > 100 µM

## O=C(C1CCCCC1)[C@@H]1[C@]2(C(=O)NC3CCCCC32)[C@@H]2CCCN2[C@@]12C(=O)NC1CCC(Cl)CC12 (stereo partly drawn)
SR leukemia
  GI50: 30.8 µM
  TGI: 124 µM
A549 NSCLC
  GI50: 135 µM
  TGI: 379 µM
SF-539 CNS
  GI50: 121 µM
  TGI: 255 µM
HS 578T breast
  GI50: 153 µM
  TGI: 422 µM
MALME-3M melanoma
  GI50: 132 µM
  TGI: 330 µM
COLO 205 colon
  GI50: 158 µM
  TGI: 323 µM
NCI-H522 lung
  GI50: 120 µM
  TGI: 281 µM
UACC-62 melanoma
  GI50: 91.9 µM
  TGI: 215 µM
SNB-75 CNS
  GI50: 58.1 µM
  TGI: 256 µM
HCT-15 colon
  GI50: 56.5 µM
  TGI: 211 µM

## O=S(=O)(NCCNC/C=C/c1ccc(Br)cc1)c1cccc2cnccc12
SR leukemia
  GI50: 13.6 µM
  TGI: > 40.9 µM and 34.6 µM
A549 NSCLC
  GI50: 11.3 µM and 13.6 µM
  TGI: 24.9 µM and 27.4 µM
SF-539 CNS
  GI50: 7.74 µM and 9.35 µM
  TGI: 21.9 µM and 22.6 µM
HS 578T breast
  GI50: 4.62 µM and 12 µM
  TGI: 42 µM and 51.9 µM
MALME-3M melanoma
  GI50: 7.39 µM and 12.7 µM
  TGI: 23 µM and 26.9 µM
COLO 205 colon
  GI50: 2.23 µM and 10.7 µM
  TGI: 4.9 µM and 24.6 µM
NCI-H522 lung
  GI50: 12.6 µM and 13.7 µM
  TGI: 26.6 µM and 28.3 µM
UACC-62 melanoma
  GI50: 9.35 µM and 14.5 µM
  TGI: 22.2 µM and 30.2 µM
SNB-75 CNS
  GI50: 3.14 µM and 1.85 µM
  TGI: 14.7 µM and 13.5 µM
HCT-15 colon
  GI50: 11.2 µM and 11.4 µM
  TGI: 27.3 µM and 25.5 µM

## N/C(=N\N=C\c1ccc(-c2ccccc2)cc1)N[N+](=O)[O-]
SR leukemia
  GI50: 0.692 µM
  TGI: > 100 µM
A549 NSCLC
  GI50: 2.75 µM
  TGI: > 100 µM
SF-539 CNS
  GI50: 2.12 µM
  TGI: > 100 µM
HS 578T breast
  GI50: 1.43 µM
  TGI: > 61.3 µM
MALME-3M melanoma
  GI50: > 100 µM
  TGI: > 100 µM
COLO 205 colon
  GI50: 3.38 µM
  TGI: > 42.1 µM
NCI-H522 lung
  GI50: 2.13 µM
  TGI: > 100 µM
UACC-62 melanoma
  GI50: 0.771 µM
  TGI: > 100 µM
SNB-75 CNS
  GI50: 1.06 µM
  TGI: 6.62 µM
HCT-15 colon
  GI50: 2.03 µM
  TGI: > 100 µM
